From publication PMC12270663, “Cagrilintide lowers bodyweight through brain amylin receptors 1 and 3” (eBioMedicine, 2025)

Experiments:
[1] = tested on: rAMYR3; parameters: method as in PMID 34288673; conditions: pEC50 = -LogEC50; cited from earlier work
[2] = tested on: area postrema (AP) neurons of WT and RAMP1/3 KO mice; test: Study 4 cohort 1: cFos positive neurons, AP; type: in vivo, mouse; conditions: for Predicted (LS) mean diff., AP cFos after square root transformation: second statistical test, Figure 4b
Description: (§1) Mice were group housed in a controlled environment maintained at 21 ± 2 °C, under a 12/12 h light–dark cycle (lights off at 11.00 h). In the first cohort, 25 male WT and 25 male RAMP1/3 KO mice aged between 12 and 20 week-old were fed chow diet and maintained under group housing condition. In the second cohort, 18 male WT, 18 male RAMP1 KO, 18 male RAMP3 KO and 18 male RAMP1/3 KO mice aged between 10 and 15 week-old were fed chow diet and maintained under group housing condition.
For both cohorts, animals were deeply anesthetised 90 min later (pentobarbital 100 mg/kg, i.p) and transcardially perfused with cold 0.1 M of phosphate buffer (PB) for 1.5 min followed by 4% of paraformaldehyde (PFA) in PB for 2.5 min. Brains were removed and postfixed overnight in 4% of PFA and cryoprotected in 20% of sucrose-PB for 24 h. Brains were frozen in hexane on dry ice and stored at −80 °C until sectioning. Stereological brain sampling of the areas of interest was performed and brain were serially cut on a cryostat (Leica Biosystems, Germany, cat# CM3050S), mounted on Superfrost Plus slides (Thermo Fisher Scientific, Reinach, Switzerland), and cryoprotected in 50% of PB, 30% of ethylene glycol, 20% of glycerol, and subsequently stored at −20 °C.
Blocking of the mouse brain sections was performed with 0.4% Triton–4% normal goat serum in PBS for 2 h at room temperature. AP/NTS and LPBN sections were incubated at 4 °C for 48 h with rabbit anti-Fos antibody (1:500, Cell signalling technology, Switzerland, Cat# 2250, RRID: AB_2247211), and then after PBS washes, incubated with goat anti-rabbit Alexa Fluor CY3 (1:200, LuBio Science GmbH, Switzerland for Jackson Immunoresearch, Cat# 111-165-144) or alexa fluor 488 for 2 h at room temperature. After thorough washing in PBS, the sections were counterstained with DAPI, mounted immediately and coverslipped with Vectashield antifade Mounting Medium (Vectorlabs, Burlingame, USA, cat# H-1400).[40]
Photomicrographs of all sections containing AP, NTS and LPBN were taken at 20× magnification using Zeiss Axio Scan.Z1 slidescanner (Center for Microscopy and Image Analysis UZH, Zeiss, Germany). All images for each study were acquired using the same exposure time. Scanned images were imported into QuPath (QuPath 0.5.0) for quantification. Three to four sections were counted and averaged per area of interest. A polygon tool was used manually to determine the boundary of the region of interest of the brain section. A cell detection tool was used to detect every cell in the section by using a built-in cell segmentation algorithm. The cell detection tool was used on the DAPI channel to make sure that only a cell was recognised and not the background or artefact by system. A detection classifier was created by using the create detection classifier function. The numbers of positive counted DAPI cells containing a cFos signal were automatically counted within the region. The experimental group was blinded to the experimenter during the analysis.

[3] = tested on: WT and RAMP1/3 KO high fat diet fed mice; test: Study 3: 3-week treatment, food intake and body weight; type: in vivo, mouse
Description: Male mice were housed in a controlled environment maintained at 21 ± 2 °C, under a 12/12 h light–dark cycle (lights off at 11.00 h). Mice had ad libitum access to standard chow (3.14 kcal/g of food; Kliba, Switzerland, cat# 3436) and water, until 3–4 weeks old. Twenty-four WT and twenty-four RAMP 1/3 KO male mice were fed a 60% fat HFD (5.24 kcal/g of food; SSNIFF Spezialdiäten GmbH, Germany, cat# EF D12452) provided ad libitum for 18 weeks. Then mice were fed to a 45% fat HFD (4.73 kcal/g of food; SSNIFF Spezialdiäten GmbH, Germany, cat# EF D12451) provided ad libitum for 6 weeks until the end of the study. The mice were group housed (3–4 mice per cage) until 1 week before the 21-day treatment period. Each cage was equipped with a red plastic house, tissue paper, nest-building material and wood shavings. Prior to the 21-day treatment, mice were injected with vehicle for three days to acclimate to the daily subcutaneous injections and reduce stress associated with the injections.
(§2) Mice were s.c. injected once a day for 3 weeks 1 h before dark onset between 9.00 and 10.00 h. Prior to injection, daily body weight and food intake were measured manually. On the day of sacrifice, mice were anesthetised with pentobarbital (100 mg/kg, i.p., Cantonal Pharmacy of Zurich, Switzerland) 24 h after receiving the last dose of peptide.

[4] = tested on: LPBN neurons of WT and RAMP1/3 KO mice; test: Study 4 cohort 1: cFos positive neurons, LPBN; type: in vivo, mouse; conditions: both 3 nmol/kg i.p., 90 min
Description: as §1
For both cohorts, animals were deeply anesthetised 90 min later (pentobarbital 100 mg/kg, i.p) and transcardially perfused with cold 0.1 M of phosphate buffer (PB) for 1.5 min followed by 4% of paraformaldehyde (PFA) in PB for 2.5 min. Brains were removed and postfixed overnight in 4% of PFA and cryoprotected in 20% of sucrose-PB for 24 h. Brains were frozen in hexane on dry ice and stored at −80 °C until sectioning. […]
(§3) Photomicrographs of all sections containing AP, NTS and LPBN were taken at 20× magnification using Zeiss Axio Scan.Z1 slidescanner (Center for Microscopy and Image Analysis UZH, Zeiss, Germany). […] Scanned images were imported into QuPath (QuPath 0.5.0) for quantification. Three to four sections were counted and averaged per area of interest. […] The numbers of positive counted DAPI cells containing a cFos signal were automatically counted within the region. […]

[5] = tested on: AP neurons of WT, RAMP1 KO, RAMP3 KO and RAMP1/3 KO mice; test: Study 4 cohort 2: cFos positive neurons, AP; type: in vivo, mouse; conditions: 3 nmol/kg i.p.
Description: as §1
Cohort 2: WT, RAMP1 KO, RAMP3 KO and RAMP1/3 KO were injected i.p. at dark onset after a 12 h fast in the light phase with vehicle or cagrilintide (3 nmol/kg) (n = 6/group).
For both cohorts, animals were deeply anesthetised 90 min later (pentobarbital 100 mg/kg, i.p) and transcardially perfused with cold 0.1 M of phosphate buffer (PB) for 1.5 min followed by 4% of paraformaldehyde (PFA) in PB for 2.5 min. […]
as §3

[6] = tested on: rCTR(a); parameters: method as in PMID 34288673; conditions: pEC50 = -LogEC50; cited from earlier work
[7] = tested on: WT and RAMP1/3 KO high fat diet fed mice; test: Study 3: body composition by EchoMRI; type: in vivo, mouse; conditions: 3 nmol/kg/d s.c., 3 weeks
Description: as §2
Brains were harvested, snap frozen on dry ice and kept at −80 °C until mRNA extraction for next-generation sequencing (NGS) analysis. Blood samples were collected from the right ventricle of the heart during the sacrifice in 1 mL EDTA-coated tubes containing dipeptidyl peptidase-4 inhibitor (10 μL/mL blood; Sigma Aldrich, Switzerland, cat# DPP4-010) and protease inhibitor (30 μL/mL blood; Sigma Aldrich, Switzerland, cat# P2714). After centrifugation, plasma was kept at −80 °C. The mice were stored at −20 °C until body composition analysis was performed.
Lean and fat mass were measured post-mortem using EchoMRI (EchoMRI LLC, USA) at the Zurich Integrative Rodent Physiology (University of Zurich). Calibrations and measurements were performed according to manufacturer's instructions. Two measurements were performed and averaged per mouse. Fat mass and lean mass values are expressed as percent of body weight.

[8] = tested on: WT 129S2 chow-fed mice; test: Study 1: acute food intake and body weight response; type: in vivo, mouse; conditions: all doses (3, 30, 300 nmol/kg s.c.)
Description: Thirty-two 12 week-old male WT 129S2/SvEv mice (Janvier Elevage, France) were individually housed in food monitoring cages (BioDAQ, New Brunswick, NJ, USA). Mice were housed in a controlled environment maintained at 21 ± 2 °C, under a 12/12 h light–dark cycle (lights off at 10.00 h). They were adapted to the cages and hoppers for 2 weeks before being tested. Mice were fed water and chow diet ad libitum (3.14 kcal/g of food; Kliba, Switzerland, cat# 3436).
Mice were injected subcutaneously (s.c.) at dark onset after a 4 h fast in the light phase with vehicle, 3 nmol/kg, 30 nmol/kg or 300 nmol/kg of cagrilintide.

CC[C@H](C)[C@H](NC(=O)[C@@H]1CCCN1C(=O)CNC(=O)[C@H](Cc1ccccc1)NC(=O)[C@H](CC(N)=O)NC(=O)[C@H](CC(N)=O)NC(=O)[C@H](CO)NC(=O)[C@H](CO)NC(=O)[C@H](Cc1c[nH]cn1)NC(=O)[C@H](CCCNC(=N)N)NC(=O)[C@H](CC(C)C)NC(=O)[C@H](Cc1ccccc1)NC(=O)[C@H](CCC(=O)O)NC(=O)[C@H](C)NC(=O)[C@H](CC(C)C)NC(=O)[C@H](CCCNC(=N)N)NC(=O)[C@H](CCC(N)=O)NC(=O)[C@@H](NC(=O)[C@H](C)NC(=O)[C@@H]1CSSC[C@H](NC(=O)[C@H](CCCCN)NC(=O)CC[C@H](NC(=O)CCCCCCCCCCCCCCCCCCC(=O)O)C(=O)O)C(=O)N[C@@H](CC(N)=O)C(=O)N[C@@H]([C@@H](C)O)C(=O)N[C@@H](C)C(=O)N[C@@H]([C@@H](C)O)C(=O)N1)[C@@H](C)O)C(=O)N[C@@H](CC(C)C)C(=O)N1CCC[C@H]1C(=O)N1CCC[C@H]1C(=O)N[C@H](C(=O)N[C@@H](CC(N)=O)C(=O)N[C@H](C(=O)NCC(=O)N[C@@H](CO)C(=O)N[C@@H](CC(N)=O)C(=O)N[C@H](C(=O)N1CCC[C@H]1C(N)=O)[C@@H](C)O)C(C)C)[C@@H](C)O [Cagrilintide]
Functional assay pEC50 [95% CI], cAMP, rAMYR3 [1]: 9.46 [0.03] M | less cFos activated AP neurons in RAMP1/3 KO vs WT mice ([2]; 3 nmol/kg i.p., cohort 1, n = 5–6/group): 57% | Predicted (LS) mean diff., AP cFos after square root transformation ([2]; Cagrilintide (3 nmol/kg), WT vs. RAMP 1/3 KO): 2.537 | Predicted (LS) mean diff., AP cFos after square root transformation ([2]; RAMP 1/3 KO, Vehicle vs. Cagrilintide (3 nmol/kg), Tukey): -3.878 | Predicted (LS) mean diff., AP cFos after square root transformation ([2]; WT, Vehicle vs. Cagrilintide (3 nmol/kg), Tukey): -6.224 | cFos activated neurons in the AP, cagrilintide compared to sCT ([2]; both 3 nmol/kg i.p., WT and KO mice, 90 min): −75% | effect on body weight ([3]; RAMP1/3 KO mice, 3 nmol/kg/d s.c., 21 days): no effect | acute anorectic effect on day 1 ([3]; RAMP1/3 KO mice, cagrilintide 3, sCT 150 nmol/kg s.c.): no effect | day 21 body weight loss vs WT Veh ([3]; WT mice, 3 nmol/kg/d s.c.): −66% | Body weight change after 3-week treatment ([3]; WT mice, cagrilintide 3, sCT 150 nmol/kg s.c. SID, mean ± SEM, n = 8/group): -3.4 ± 0.51 g | Food intake on Day 1 ([3]; WT mice, cagrilintide 3, sCT 150 nmol/kg s.c., mean ± SEM, n = 7–8/group): 1.2 ± 0.1 g | cFos activated neurons in the LPBN, cagrilintide compared to sCT [4]: −36% | decrease of activated AP neurons in RAMP1/3 KO compared to WT-injected mice [5]: 40% | Functional assay pEC50 [95% CI], cAMP, rCTR(a) [6]: 9.54 [n.d] M | relative fat mass, RAMP1/3 KO compared to WT-treated counterparts [7]: +32% | relative lean mass, RAMP1/3 KO compared to WT-treated counterparts [7]: −22% | acute effect on eating [8]: significantly reduced eating
